Experiments:
Test in all cases: relative viability (nuclei count vs DMSO), 5 days (fraction); higher = more cells survive
[1] = compound: COc1ccc(-c2ccc3c(N4CCOC[C@@H]4C)nc(N4CCOC[C@@H]4C)nc3n2)cc1CO [AZD8055] + CC(C)C[C@H](NC(=O)[C@H](Cc1ccccc1)NC(=O)c1cnccn1)B(O)O [Bortezomib] (partner 0.002 µM)
In short: (§1)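 Relative viability is defined as nuclei in treated wells over nuclei in vehicle wells. Duplicate plates were run and medians reported. Lung cancer cell lines in 1536-well plates were dosed by pin tool one day after seeding, with one drug or with a fixed anchor-drug dose plus five library-drug doses (not always all listed) in √10 steps, and nuclei were counted after 5 days.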

[2] = compound: COc1ccc(-c2ccc3c(N4CCOC[C@@H]4C)nc(N4CCOC[C@@H]4C)nc3n2)cc1CO [AZD8055] + CC1(C)CCC(c2ccc(Cl)cc2)=C(CN2CCN(c3ccc(C(=O)NS(=O)(=O)c4ccc(N[C@H](CCN5CCOCC5)CSc5ccccc5)c(S(=O)(=O)C(F)(F)F)c4)cc3)CC2)C1 [Navitoclax] (partner 0.5 µM)
In short: as §1

[3] = compound: COc1ccc(-c2ccc3c(N4CCOC[C@@H]4C)nc(N4CCOC[C@@H]4C)nc3n2)cc1CO [AZD8055] + Cc1nc(Nc2ncc(C(=O)Nc3c(C)cccc3Cl)s2)cc(N2CCN(CCO)CC2)n1 [Dasatinib] (partner 0.075 µM)
In short: as §1

[4] = compound: COc1ccc(-c2ccc3c(N4CCOC[C@@H]4C)nc(N4CCOC[C@@H]4C)nc3n2)cc1CO [AZD8055] + CCNC(=O)c1noc(-c2cc(C(C)C)c(O)cc2O)c1-c1ccc(CN2CCOCC2)cc1 [Luminespib] (partner 0.01 µM)
In short: as §1

Cell Line | relative viability ([1]; first compound 0.01 µM) | relative viability ([1]; first compound 0.03162 µM) | relative viability ([1]; first compound 0.1 µM) | relative viability ([1]; first compound 0.3162 µM) | relative viability ([1]; first compound 1 µM) | relative viability ([2]; first compound 0.01 µM) | relative viability ([2]; first compound 0.03162 µM) | relative viability ([2]; first compound 0.1 µM) | relative viability ([2]; first compound 0.3162 µM) | relative viability ([2]; first compound 1 µM) | relative viability ([3]; first compound 0.01 µM) | relative viability ([3]; first compound 0.03162 µM) | relative viability ([3]; first compound 0.1 µM) | relative viability ([3]; first compound 0.3162 µM) | relative viability ([3]; first compound 1 µM) | relative viability ([4]; first compound 0.01 µM) | relative viability ([4]; first compound 0.03162 µM) | relative viability ([4]; first compound 0.1 µM) | relative viability ([4]; first compound 0.3162 µM) | relative viability ([4]; first compound 1 µM)
NCI-H2009 | 1.14 | 0.649 | 0.845 | 0.35 | 0.264 | 1.11 | 1.14 | 1.04 | 0.553 | 0.323 | 0.301 | 0.245 | 0.232 | 0.175 | 0.184 | 1.07 | 1.07 | 1.16 | 0.887 | 0.378
NCI-H2023 | 0.837 | 0.664 | 0.356 | 0.136 | 0.137 | 0.951 | 0.871 | 0.598 | 0.249 | 0.181 | 0.568 | 0.358 | 0.166 | 0.0954 | 0.103 | 0.591 | 0.411 | 0.138 | 0.1 | 0.128
NCI-H2085 | 1.11 | 0.859 | 0.705 | 0.407 | 0.357 | 1.11 | 0.945 | 0.672 | 0.417 | 0.33 | 0.205 | 0.201 | 0.199 | 0.217 | 0.195 | 0.447 | 0.387 | 0.294 | 0.21 | 0.281
NCI-H2087 | 0.783 | 0.992 | 0.796 | 0.441 | 0.252 | 0.911 | 0.951 | 0.703 | 0.421 | 0.309 | 0.957 | 0.637 | 0.792 | 0.292 | 0.216 | 0.171 | 0.163 | 0.138 | 0.124 | 0.141
